These results are taken from US20110081674A1, “CONTINUOUS-FLOW DEFORMABILITY-BASED CELL SEPARATION” (priority 2009, published 2011).

Each structure is given as a SMILES string.

This experiment has as its system red blood cells (RBCs). In words: Deformability and mobility of glutaraldehyde-treated red blood cells at slits of the microfluidic device. Format: cell-based. The text has this: FIG. 4 illustrates embodiments of: A. red blood cells (RBCs) aligned at the entrance of a 1 μm slit under a pressure difference of 40 kPa. […] Because the surface-area to volume ratio of RBCs is constrained, they are unable to pass through slits less than a certain gap width apart. B. RBCs treated with 0.1% Glutaraldehyde (GA) maintain their biconcave structure at the entrance of 2 μm slits under a pressure difference of 40 kPa. Glutaraldehyde cross-links proteins in the membrane and in the cytosol of RBCs, making them stiffer. […] C. Mobility vs. GA concentration. […] The slit gap is the vertical gap that defines the spacing between the two substrates at the trenches area. These are the shallow regions of a unit of the sorter.
With reference to FIG. 4A, a solution of PBS 1× and 0.2% w/v Pluronic F108 (a surfactant) and Bovine Serum Albumin 1% w/v (another surfactant) was prepared. The device was filled with this solution by applying pressure to one of the reservoirs. 1 μL of whole blood was mixed with 100 μL of this solution. The mixture was injected into the entrance reservoir of the device shown by using a syringe. The pressure difference between the two reservoirs was 40 kPa and was generated by using a pressure regulator. The cell concentration was approximately 0.5% hematocrit. Mobility was measured by tracking individual cells over a distance of 100 μm.

Turning to `O=CCCCC=O` [Glutaraldehyde], the “Ability of treated RBCs to deform and pass through slits” value (RBCs treated with 0.1% Glutaraldehyde, 2 μm slits, pressure difference 40 kPa) is recorded as “unable to pass through 2 μm slits”. Also, where the note is “higher GA concentration, given ambient fluid velocity”, the “Mobility vs. GA concentration” value is “decreased mobility”.
